Data: patent US10703764B2, “Benzopiperazine compositions as BET bromodomain inhibitors” (FORMA Therapeutics, Inc., priority 2013, dated 2020)

What was measured:
MV4-11 cells = assay: Oncology cell growth assay (3-day proliferation, CellTiter-Glo); assay type: cell-based; settings: Homo sapiens, MV4-11, 72 h, AML cell line MV4-11, 72 hours, compounds grouped by IC50 range, read-out: MV4-11 IC50 (inhibition of proliferation, gIC50)
Procedure, shortened: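 MV4-11 AML cells (RPMI 1640, 10% FBS) plated at 3000 cells/well and exposed 72 h to compound at final 10 to 0.0045 μM (3-fold series). Viability read by CellTiter-Glo luminescence; gIC50 from four-parameter logistic fit between DMSO control and no-cell background.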

BRD4 BD2 = biological target: T1, BRD4 BD2 (Homo sapiens, UniProt O60885); assay: AlphaScreen binding assay, BRD4 Bromodomain 2
T1 construct: made in house
Procedure, shortened: (§1)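 An AlphaScreen competition format was used with His-BRD4 BD1 or BD2 and biotin-H4 K5/8/12/16-acetyl peptide, each at matched final levels of 50 nM (BD1) or 100 nM (BD2). Incubation in HEPES/NaCl buffer with 0.1% BSA and 0.01% Triton X-100 ran ≥1 h before IC50 determination.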

BRD4 BD1 = biological target: T2, BRD4 BD1 (Homo sapiens, UniProt O60885); assay: AlphaScreen binding assay, BRD4 Bromodomain 1
T2 construct: made in house
Procedure, shortened: as §1

Row | SMILES | IC50 (MV4-11 cells) [nM] | IC50 (BRD4 BD2) [nM] | IC50 (BRD4 BD1) [nM]
1 | CC(=O)N1c2ccc(-c3cccc(S(C)(=O)=O)c3)cc2N(C(=O)OC2CCCCC2)C[C@@H]1C [Example I-1225] | 100 to 500 | 50 to 500 | 100 to 1000
2 | CC(=O)N1c2ccc(-c3cccc(S(C)(=O)=O)c3)cc2N(C(=O)OC2CCOCC2)C[C@@H]1C [Example I-1226] | > 500 | 50 to 500 | 100 to 1000
3 | CCS(=O)(=O)Nc1cccc(-c2ccc3c(c2)N(C(=O)OC2CCCCC2)C[C@H](C)N3C(C)=O)c1 [Example I-1227] | 100 to 500 | 50 to 500 | 100 to 1000
4 | CCS(=O)(=O)Nc1cccc(-c2ccc3c(c2)N(C(=O)OC2CCOCC2)C[C@H](C)N3C(C)=O)c1 [Example I-1228] | 100 to 500 | 50 to 500 | 100 to 1000
5 | CC(=O)N1c2ccc(-c3ccc(N4CCOCC4)cc3)cc2N(C(=O)OC2CCCCC2)C[C@@H]1C [Example I-1229] | 100 to 500 | 50 to 500 | 100 to 1000
6 | CC(=O)N1c2ccc(-c3ccc(N4CCOCC4)cc3)cc2N(C(=O)OC2CCOCC2)C[C@@H]1C [Example I-1230] | 100 to 500 | 50 to 500 | 100 to 1000
7 | CC(=O)N1c2ccc(-c3ccc(S(=O)(=O)C(C)C)cc3)cc2N(C(=O)OC2CCCCC2)C[C@@H]1C [Example I-1231] | 100 to 500 | 50 to 500 | 100 to 1000
8 | CC(=O)N1c2ccc(-c3ccc(S(=O)(=O)C(C)C)cc3)cc2N(C(=O)OC2CCOCC2)C[C@@H]1C [Example I-1232] | 100 to 500 | 50 to 500 | 100 to 1000
9 | CC(=O)N1c2ccc(-c3ccc(S(N)(=O)=O)cc3)cc2N(C(=O)OC2CCCCC2)C[C@@H]1C [Example I-1233] | 100 to 500 | 50 to 500 | 100 to 1000
10 | CC(=O)N1c2ccc(-c3ccc(S(N)(=O)=O)cc3)cc2N(C(=O)OC2CCOCC2)C[C@@H]1C [Example I-1234] | 100 to 500 | 50 to 500 | 100 to 1000
11 | CCCS(=O)(=O)c1ccc(-c2ccc3c(c2)N(C(=O)OC2CCCCC2)C[C@H](C)N3C(C)=O)cc1 [Example I-1235] | 100 to 500 | 50 to 500 | 100 to 1000
12 | CCCS(=O)(=O)c1ccc(-c2ccc3c(c2)N(C(=O)OC2CCOCC2)C[C@H](C)N3C(C)=O)cc1 [Example I-1236] | 100 to 500 | 50 to 500 | 100 to 1000
13 | CC(=O)N1c2ccc(-c3ccc(S(=O)(=O)CC4CC4)cc3)cc2N(C(=O)OC2CCCCC2)C[C@@H]1C [Example I-1237] | 100 to 500 | 50 to 500 | 100 to 1000
14 | CC(=O)N1c2ccc(-c3ccc(S(=O)(=O)CC4CC4)cc3)cc2N(C(=O)OC2CCOCC2)C[C@@H]1C [Example I-1238] | > 500 | 50 to 500 | 100 to 1000
15 | CC(=O)N1c2ccc(-c3ccc(S(=O)(=O)CC(C)C)cc3)cc2N(C(=O)OC2CCCCC2)C[C@@H]1C [Example I-1239] | 100 to 500 | 50 to 500 | 100 to 1000
16 | CC(=O)N1c2ccc(-c3ccc(S(=O)(=O)CC(C)C)cc3)cc2N(C(=O)OC2CCOCC2)C[C@@H]1C [Example I-1240] | 100 to 500 | 50 to 500 | 100 to 1000
17 | CC(=O)N1c2ccc(-c3ccc(S(C)(=O)=O)c(F)c3)cc2N(C(=O)OC2CCCCC2)C[C@@H]1C [Example I-1241] | 100 to 500 | 50 to 500 | 100 to 1000
18 | CC(=O)N1c2ccc(-c3ccc(S(C)(=O)=O)c(F)c3)cc2N(C(=O)OC2CCOCC2)C[C@@H]1C [Example I-1242] | > 500 | 50 to 500 | 1000 to 10000
19 | CC(=O)N1c2ccc(-c3cccc(S(=O)(=O)C4CC4)c3)cc2N(C(=O)OC2CCCCC2)C[C@@H]1C [Example I-1243] | 100 to 500 | 50 to 500 | 100 to 1000
20 | CC(=O)N1c2ccc(-c3cccc(S(=O)(=O)C4CC4)c3)cc2N(C(=O)OC2CCOCC2)C[C@@H]1C [Example I-1244] | 100 to 500 | 50 to 500 | 100 to 1000
21 | CCS(=O)(=O)c1cccc(-c2ccc3c(c2)N(C(=O)OC2CCCCC2)C[C@H](C)N3C(C)=O)c1 [Example I-1245] | 100 to 500 | 50 to 500 | 100 to 1000
22 | CCS(=O)(=O)c1cccc(-c2ccc3c(c2)N(C(=O)OC2CCOCC2)C[C@H](C)N3C(C)=O)c1 [Example I-1246] | 100 to 500 | 50 to 500 | 100 to 1000
23 | CC(=O)N1c2ccc(-c3cc(Cl)cc(S(C)(=O)=O)c3)cc2N(C(=O)OC2CCCCC2)C[C@@H]1C [Example I-1247] | > 500 | > 500 | 1000 to 10000
24 | CC(=O)N1c2ccc(-c3cc(Cl)cc(S(C)(=O)=O)c3)cc2N(C(=O)OC2CCOCC2)C[C@@H]1C [Example I-1248] | 100 to 500 | > 500 | 100 to 1000

Row | SMILES | IC50 (MV4-11 cells) [nM] | IC50 (BRD4 BD2) [nM] | IC50 (BRD4 BD1) [nM]
25 | CC(=O)N1c2ccc(-c3ccc(F)c(S(C)(=O)=O)c3)cc2N(C(=O)OC2CCCCC2)C[C@@H]1C [Example I-1249] | 100 to 500 | 50 to 500 | 1000 to 10000
26 | CC(=O)N1c2ccc(-c3ccc(F)c(S(C)(=O)=O)c3)cc2N(C(=O)OC2CCOCC2)C[C@@H]1C [Example I-1250] | > 500 | > 500 | 1000 to 10000
27 | CC(=O)N1c2ccc(-c3ccc(OCCS(C)(=O)=O)cc3)cc2N(C(=O)OC2CCCCC2)C[C@@H]1C [Example I-1251] | 100 to 500 | 50 to 500 | 100 to 1000
28 | CC(=O)N1c2ccc(-c3ccc(OCCS(C)(=O)=O)cc3)cc2N(C(=O)OC2CCOCC2)C[C@@H]1C [Example I-1252] | 100 to 500 | 50 to 500 | 100 to 1000
29 | CNS(=O)(=O)c1cccc(-c2ccc3c(c2)N(C(=O)OC2CCCCC2)C[C@H](C)N3C(C)=O)c1 [Example I-1253] | 100 to 500 | 50 to 500 | 100 to 1000
30 | CNS(=O)(=O)c1cccc(-c2ccc3c(c2)N(C(=O)OC2CCOCC2)C[C@H](C)N3C(C)=O)c1 [Example I-1254] | < 100 | 50 to 500 | 100 to 1000
31 | CC(=O)N1c2ccc(-c3cccc(S(=O)(=O)NCCO)c3)cc2N(C(=O)OC2CCCCC2)C[C@@H]1C [Example I-1255] | 100 to 500 | 50 to 500 | 100 to 1000
32 | CC(=O)N1c2ccc(-c3cccc(S(=O)(=O)NCCO)c3)cc2N(C(=O)OC2CCOCC2)C[C@@H]1C [Example I-1256] | 100 to 500 | 50 to 500 | 100 to 1000
33 | CCN(CC)S(=O)(=O)c1cc(-c2ccc3c(c2)N(C(=O)OC2CCCCC2)C[C@H](C)N3C(C)=O)ccc1OC [Example I-1257] | 100 to 500 | 50 to 500 | 100 to 1000
34 | CCN(CC)S(=O)(=O)c1cc(-c2ccc3c(c2)N(C(=O)OC2CCOCC2)C[C@H](C)N3C(C)=O)ccc1OC [Example I-1258] | 100 to 500 | 50 to 500 | 100 to 1000
35 | CC(=O)N1c2ccc(-c3ccc(S(=O)(=O)n4cccn4)cc3)cc2N(C(=O)OC2CCCCC2)C[C@@H]1C [Example I-1259] | 100 to 500 | 50 to 500 | 100 to 1000
36 | CC(=O)N1c2ccc(-c3ccc(S(=O)(=O)n4cccn4)cc3)cc2N(C(=O)OC2CCOCC2)C[C@@H]1C [Example I-1260] | > 500 | 50 to 500 | 100 to 1000
37 | CNS(=O)(=O)c1ccc(-c2ccc3c(c2)N(C(=O)OC2CCCCC2)C[C@H](C)N3C(C)=O)cc1 [Example I-1261] | 100 to 500 | 50 to 500 | 100 to 1000
38 | CNS(=O)(=O)c1ccc(-c2ccc3c(c2)N(C(=O)OC2CCOCC2)C[C@H](C)N3C(C)=O)cc1 [Example I-1262] | 100 to 500 | 50 to 500 | 100 to 1000
39 | CC(=O)N1c2ccc(-c3ccc(S(=O)(=O)N(C)C)cc3)cc2N(C(=O)OC2CCCCC2)C[C@@H]1C [Example I-1263] | 100 to 500 | 50 to 500 | 100 to 1000
40 | CC(=O)N1c2ccc(-c3ccc(S(=O)(=O)N(C)C)cc3)cc2N(C(=O)OC2CCOCC2)C[C@@H]1C [Example I-1264] | 100 to 500 | 50 to 500 | 100 to 1000
41 | CC(=O)N1c2ccc(-c3ccc(S(=O)(=O)NC(C)(C)C)cc3)cc2N(C(=O)OC2CCCCC2)C[C@@H]1C [Example I-1265] | 100 to 500 | 50 to 500 | 100 to 1000
42 | CC(=O)N1c2ccc(-c3ccc(S(=O)(=O)NC(C)(C)C)cc3)cc2N(C(=O)OC2CCOCC2)C[C@@H]1C [Example I-1266] | 100 to 500 | 50 to 500 | 100 to 1000
43 | CC(=O)N1c2ccc(-c3ccc(N4CCCC4=O)cc3)cc2N(C(=O)OC2CCCCC2)C[C@@H]1C [Example I-1267] | 100 to 500 | 50 to 500 | 100 to 1000
44 | CC(=O)N1c2ccc(-c3ccc(N4CCCC4=O)cc3)cc2N(C(=O)OC2CCOCC2)C[C@@H]1C [Example I-1268] | 100 to 500 | 50 to 500 | 100 to 1000
45 | CCS(=O)(=O)Nc1ccc(-c2ccc3c(c2)N(C(=O)OC2CCCCC2)C[C@H](C)N3C(C)=O)cc1 [Example I-1269] | < 100 | 50 to 500 | 100 to 1000
46 | CCS(=O)(=O)Nc1ccc(-c2ccc3c(c2)N(C(=O)OC2CCOCC2)C[C@H](C)N3C(C)=O)cc1 [Example I-1270] | 100 to 500 | 50 to 500 | 100 to 1000
47 | COc1ccc(-c2ccc3c(c2)N(C(=O)OC2CCCCC2)C[C@H](C)N3C(C)=O)cc1NS(C)(=O)=O [Example I-1271] | < 100 | 50 to 500 | 100 to 1000
